Laboratory results: US20070009531A1 (priority 2005, published 2007)
“Also recorded” adds a separate entry of the source.

Assays:
[1] = combination of verapamil and VAD (vincristine, doxorubicin, dexamethasone); cited from earlier work
[2] = pharmacokinetic interaction with co-administered oncolytics in preclinical models; assay type: in vivo; conditions: several oncolytics
[3] = test system: P-gp-associated resistance; assay: in vivo activity in preclinical animal studies
[4] = test system: AML; conditions: older patients, Mylotarg alone, registration trials; cited from earlier work

## COc1ccc(CCN(C)CCCC(C#N)(c2ccc(OC)c(OC)c2)C(C)C)cc1OC (stereo not shown) [verapamil]
[1]
  patients responded: 5 of 22

## O[C@@H](COc1cccc2ncccc12)CN1CCN([C@@H]2c3ccccc3[C@@H]3[C@H](c4ccccc42)C3(F)F)CC1 [zosuquidar]
[2]
  pharmacokinetic interaction with co-administered chemotherapy: no pharmacokinetic interaction; also recorded: minimal pharmacokinetic (PK) interactions
[3]
  in vivo activity: good in vivo activity

## gemtuzumab ozogamicin [Mylotarg]
[4]
  rate of complete remission (CR+CRp): 26%
